Reference: PMC11219860, “A chemogenetic approach for dopamine imaging with tunable sensitivity” (Nature Communications, 2024)
Read-outs that look alike come from different tables or passages of the source.

Tests used:
Open field behavior = assay type: in vivo, mouse
Method: For combined locomotion/photometry experiments in the open field (OF) in tethered mice, a 50 × 50 cm arena was used. Fiber photometry was conducted using a Doric photometry rig combined with a filter/mirror minicube set (Doric Lenses), as above. […] Data were sampled at 122 Hz. […] Mice were habituated to the chamber for 3 consecutive days (30 minutes per day). On experimental days, locomotor activity was video recorded and synchronized with fiber photometry signal recording. The baseline DA signal was recorded for 20 minutes, then the mouse received i.p. injection of vehicle or DETQ (10 mg/kg) in interleaved sessions. Following injection, the DA signal was recorded for an additional 90 minutes. The OF chamber was cleaned with ethanol and water between mice. Recording sessions were repeated at 48 hours intervals. Mouse behavior as well as photometry signals were analyzed with a custom-written MATLAB script. Mouse locomotion was computed using the body center point of the animal. The center zone of the arena was defined automatically during behavior data analysis as the 25 × 25 cm square with the central point aligned to the center of the open field. The distance moved and time spent in the center zone were quantified in 10 minutes time bins and as the total during the 90 minutes after ip injections. To test the dose-dependent effects of DETQ on locomotion in untethered mice, mice were injected i.p. with vehicle, DETQ (3, 10 or 30 mg/kg) or cocaine (20 mg/kg) while their locomotor activity was recorded in an OF arena (60 x 60 cm) for 45 min. Videos were recorded with a Logitech C270 camera and analyzed with DeepLabCut (version 2.1.8.2)[84] on an existing open field network. Representative traces were generated with the Anymaze (v7.2) software (Stoelting Co.).

AlloLite-ctr = assay: In vivo photometry of AlloLite-ctr in NAc; set-up: species or system mouse; details: DETQ 10 mg/kg
Method: Fiber photometry combined with optogenetics was conducted using a RZ10X LUX-I/O Processor with integrated LEDs (Tucker-Davis Technologies) combined with a filter/mirror minicube set (FMC6_IE(400-410)_E1(467-497)_F1(507-554)_E2(566-586)_F2(600-680)_S) (Doric Lenses). […] Low-autofluorescence patch cords (400 µm/0.57 NA, Doric) were attached to the optic fibers (400 µm/0.66 NA, Doric) on the mouse’s head to collect fluorescence emissions. Signals were filtered through 500–540 nm GFP emission filters coupled to a photodetector on the RZ10X. […] Data were sampled at 1017.3 Hz. […] For optogenetic stimulation, a 635 nm LED was passed through the 580–680 nm minicube F2 port and reached the mouse through the same unique optic fiber; the LED was driven at 1 to 3 mW. To determine the ‘temporal window for stable imaging’ in the PFC using dLight1.3b recordings, DAT^IREScre mice expressing ChrimsonR in VTA DA axons and dLight1.3b in the PFC were injected i.p. with vehicle at 0 min, followed by DETQ (10 mg/kg) 25 min later. […] DA release was measured with fiber photometry. […] After each injection, NAc DA axons were optically (opto) activated across 3 trials (2 s, 20 Hz, 20-ms pulses) every 5 min and DA released measured with fiber photometry. […] After each injection, NAc DA axons were optically (opto) inhibited (10 s, continuous trials) every 3 min (8 trials/condition) and DA released measured with fiber photometry. […] DA release was measured with fiber photometry.
For long-term recordings during optogenetic stimulation or chemogenetic inhibition linear fit was calculated across the entire recording or across the vehicle epoch; for event-related experiments fit was performed on fluorescent data obtained in the −60 to +60 s around opto events or −5 to −1 s around behavioral events. […] DA event-related responses were quantified by computing the value at the transient’s peak value and the AUC in the 0 to 10 s or 0 to 60 s period post-event onset. […]

5-HT2B = tested on: 5-HT2B; set-up: method as in Svensson et al., 2017; Hao et al., 2019; details: 10 uM of DETQ; ref Svensson et al., 2017; Hao et al., 2019; cited from earlier work
[1] = set-up: method as in Bruns et al., 2018; details: ref Bruns et al., 2018, cited from earlier work

C[C@H]1c2cccc(C(C)(C)O)c2C[C@H](CO)N1C(=O)Cc1c(Cl)cccc1Cl [DETQ, 2-(2,6-dichlorophenyl)-1-((1S,3R)-3-(hydroxymethyl)-5-(2-hydroxypropan-2-yl)-1-methyl-3,4-dihydroisoquinolin-2(1H)-yl)ethan-1-one]
total locomotion or time spent in the center (Open field behavior; tethered mice, DETQ 10 mg/kg): did not observe any effect
locomotion in open field (Open field behavior; untethered mice, 45 min, DETQ 3, 10, 30 mg/kg i.p., cocaine 20 mg/kg): did not have a significant effect
increase in baseline signal after DETQ administration (AlloLite-ctr): completely absent
opto-evoked DA peaks of AlloLite-ctr upon DETQ (AlloLite-ctr): retained the same amplitude and kinetics
inhibition of ligand binding (5-HT2B): 48%
brain levels of the histamine metabolites ([1]; hD1 mice, same dose): significant elevations
brain levels of the histamine metabolites ([1]; wild type mice, 10 mg/kg PO): did not change
